Laboratory results taken from patent US20220289708A1, “SUBSTITUTED N-PHENYL URACILS, SALTS THEREOF AND THEIR USE AS HERBICIDAL AGENTS” (Bayer Aktiengesellschaft, priority 2019, published 2022).

Columns and labels:
Format in all cases: in vivo
[1] = test system: Amaranthus retroflexus; experiment: Pre-emergence herbicidal action; settings: application rate 20 g/ha
Summary of the method: (§1)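 Soil-applied, pre-emergence; aqueous WP/EC spray with 0.5% additive, 600 l/ha; ≤80 g/ha; greenhouse, ~3 wk; visual % control vs untreated.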

[2] = test system: Lolium rigidum; experiment: Pre-emergence herbicidal action; settings: application rate 80 g/ha
Summary of the method: as §1

[3] = test system: Matricaria inodora; experiment: Pre-emergence herbicidal action; settings: application rate 20 g/ha
Summary of the method: as §1

[4] = test system: Avena fatua; experiment: Pre-emergence herbicidal action; settings: application rate 80 g/ha
Summary of the method: as §1

[5] = test system: Setaria viridis; experiment: Pre-emergence herbicidal action; settings: application rate 20 g/ha
Summary of the method: as §1

[6] = test system: Pharbitis purpurea; experiment: Pre-emergence herbicidal action
Summary of the method: as §1

[7] = test system: Echinochloa crus-galli; experiment: Pre-emergence herbicidal action
Summary of the method: as §1

[8] = test system: Alopecurus myosuroides; experiment: Pre-emergence herbicidal action
Summary of the method: as §1

[9] = test system: Veronica persica; experiment: Pre-emergence herbicidal action; settings: application rate 20 g/ha
Summary of the method: as §1

[10] = test system: Viola tricolor; experiment: Pre-emergence herbicidal action; settings: application rate 20 g/ha
Summary of the method: as §1

[11] = test system: Polygonum convolvulus; experiment: Pre-emergence herbicidal action; settings: application rate 20 g/ha
Summary of the method: as §1

[12] = test system: Abutilon theophrasti; experiment: Pre-emergence herbicidal action; settings: application rate 20 g/ha
Summary of the method: as §1

[13] = test system: Digitaria sanguinalis; experiment: Pre-emergence herbicidal action; settings: application rate 20 g/ha
Summary of the method: as §1

[14] = test system: Zea mays; experiment: Pre-emergence crop plant compatibility; settings: application rate 20 g/ha
Description: (§2) B. Pre-Emergence Herbicidal Action and Crop Plant Compatibility
(§3) Seeds of monocotyledonous and dicotyledonous weed plants and crop plants were placed in plastic or organic planting pots and covered with soil. The compounds of the invention, formulated in the form of wettable powders (WP) or as emulsion concentrates (EC), were then applied to the surface of the covering soil as aqueous suspension or emulsion with addition of 0.5% additive at a water application rate equivalent to 600 l/ha (converted). After the treatment, the pots were placed in a greenhouse and kept under good growth conditions for the test plants. After about 3 weeks, the effect of the preparations was scored visually in comparison with untreated controls as percentages. For example, 100% activity=the plants have died, 0% activity=like control plants.
(§4) Tables B14 to B16 below show the crop plant compatibilities of selected compounds of the general formula (I) according to Tables I.1 to I.36 at an application rate corresponding to 20 g/ha, which were obtained in experiments according to the experimental procedure mentioned above. Here, the observed effects on selected crop plants are stated in comparison to the untreated controls (values in %).

[15] = test system: Triticum aestivum; experiment: Pre-emergence crop plant compatibility; settings: application rate 20 g/ha
Description: as §2, §3, §4

[16] = test system: Oryza sativa; experiment: Post-emergence crop plant compatibility; settings: application rate 5 g/ha
Summary of the method: (§5)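 Greenhouse crop plants in sandy loam sprayed at one-leaf stage (2-3 weeks after sowing) with WP or EC formulations plus 0.5% additive, 600 l/ha water, at 5 g/ha or 20 g/ha. Damage scored visually after about 3 weeks as % versus untreated controls (100% = plants dead).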

[17] = test system: Triticum aestivum; experiment: Post-emergence crop plant compatibility; settings: application rate 5 g/ha
Summary of the method: as §5

[18] = test system: Amaranthus retroflexus; experiment: Post-emergence herbicidal action; settings: application rate 5 g/ha, rated visually after about 3 weeks vs untreated controls
Summary of the method: (§6)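 Activity scored visually about 3 weeks post-spray against untreated plants, on a scale where 0% equals control and 100% equals dead plants. Compounds, as WP or EC with 0.5% additive in 600 l/ha water, were applied at 20 g/ha or less onto one-leaf-stage greenhouse plants sown 2–3 weeks earlier.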

[19] = test system: Pharbitis purpurea; experiment: Post-emergence herbicidal action; settings: application rate 5 g/ha, rated visually after about 3 weeks vs untreated controls
Summary of the method: as §6

[20] = test system: Echinochloa crus-galli; experiment: Post-emergence herbicidal action; settings: application rate 5 g/ha, rated visually after about 3 weeks vs untreated controls
Summary of the method: as §6

[21] = test system: Veronica persica; experiment: Post-emergence herbicidal action; settings: application rate 5 g/ha
Summary of the method: as §6

[22] = test system: Abutilon theophrasti; experiment: Post-emergence herbicidal action; settings: application rate 5 g/ha, rated visually after about 3 weeks vs untreated controls
Summary of the method: as §6

[23] = test system: Digitaria sanguinalis; experiment: Post-emergence herbicidal action; settings: rated visually after about 3 weeks vs untreated controls
Summary of the method: as §6

[24] = test system: Glycine max; experiment: Pre-emergence crop plant compatibility; settings: application rate 20 g/ha, observed effect on crop vs untreated controls after about 3 weeks
Description: as §2, §3, §4

[25] = test system: Matricaria inodora; experiment: Post-emergence herbicidal action; settings: application rate 5 g/ha, rated visually after about 3 weeks vs untreated controls
Summary of the method: as §6

Zea mays (efficacy in %) [14] [%] | Triticum aestivum (efficacy in %) [15] [%] | Oryza sativa (efficacy in %) [16] [%] | Triticum aestivum (efficacy in %) [17] [%] | SMILES | Amaranthus retroflexus (efficacy in %) [1] [%] | Lolium rigidum (efficacy in %) [2] [%] | Matricaria inodora (efficacy in %) [3] [%] | Avena fatua (efficacy in %) [4] [%] | Setaria viridis (efficacy in %) [5] [%] | Pharbitis purpurea (efficacy in %) ([6]; application rate 20 g/ha) [%] | Veronica persica (efficacy in %) [9] [%] | Viola tricolor (efficacy in %) [10] [%] | Polygonum convolvulus (efficacy in %) [11] [%] | Abutilon theophrasti (efficacy in %) [12] [%] | Digitaria sanguinalis (efficacy in %) [13] [%] | Amaranthus retroflexus (efficacy in %) [18] [%] | Pharbitis purpurea (efficacy in %) [19] [%] | Echinochloa crus-galli (efficacy in %) [20] [%] | Veronica persica (efficacy in %) [21] [%] | Abutilon theophrasti (efficacy in %) [22] [%] | also measured
0 | 10 | 20 | 20 | Cn1c(C(F)(F)F)cc(=O)n(-c2cc(Oc3cccnc3OCC(=O)OCCOCc3ccccc3)c(Cl)cc2F)c1=O [I.15-6] | 100 | 100 | 100 | 100 | 100 | 100 | 100 | 100 | 100 | 100 | 100 | 100 | 100 | 100 | 100 | 100 | Echinochloa crus-galli (efficacy in %) ([7]; application rate 80 g/ha): 100%; Alopecurus myosuroides (efficacy in %) ([8]; application rate 20 g/ha): 90%; Digitaria sanguinalis (efficacy in %) ([23]; application rate 5 g/ha): 100%
0 | 10 | 0 | 0 | COCCOCCOCCOCCOC(=O)COc1ncccc1Oc1cc(-n2c(=O)cc(C(F)(F)F)n(C)c2=O)c(F)cc1Cl [I.15-154] | 100 | 100 | 100 | 100 | 100 |  | 100 | 100 | 100 | 100 | 100 | 100 | 100 |  | 100 | 100 | Pharbitis purpurea (efficacy in %) ([6]; application rate 80 g/ha): 100%; Echinochloa crus-galli (efficacy in %) ([7]; application rate 80 g/ha): 100%; Alopecurus myosuroides (efficacy in %) ([8]; application rate 80 g/ha): 100%; Digitaria sanguinalis (efficacy in %) ([23]; application rate 20 g/ha): 100%
 | 20 |  | 0 | Cn1c(C(F)(F)F)cc(=O)n(-c2cc(Oc3cccnc3OCC(=O)OCCS(C)(=O)=O)c(Cl)cc2F)c1=O [I.15-166] | 100 | 100 | 100 | 100 | 100 | 100 | 100 | 100 | 100 | 100 | 100 | 100 |  |  | 100 | 100 | Echinochloa crus-galli (efficacy in %) ([7]; application rate 20 g/ha): 80%; Alopecurus myosuroides (efficacy in %) ([8]; application rate 20 g/ha): 90%
20 | 0 | 0 | 0 | Cn1c(C(F)(F)F)cc(=O)n(-c2cc(Oc3cccnc3OCC(=O)OCC[Si](C)(C)C)c(Cl)cc2F)c1=O [I.15-211] | 100 | 100 | 100 | 80 | 100 | 80 | 100 | 100 | 100 | 100 | 100 | 100 | 80 | 100 | 100 | 100 | Echinochloa crus-galli (efficacy in %) ([7]; application rate 20 g/ha): 80%; Alopecurus myosuroides (efficacy in %) ([8]; application rate 80 g/ha): 100%; Digitaria sanguinalis (efficacy in %) ([23]; application rate 5 g/ha): 100%
0 | 20 |  |  | CC(C#N)COC(=O)COc1ncccc1Oc1cc(-n2c(=O)cc(C(F)(F)F)n(C)c2=O)c(F)cc1Cl (centres unmarked) [I.15-405] | 100 | 100 | 100 | 100 | 100 | 100 | 100 | 100 | 90 | 100 | 100 |  | 100 | 100 | 100 |  | Echinochloa crus-galli (efficacy in %) ([7]; application rate 20 g/ha): 80%; Alopecurus myosuroides (efficacy in %) ([8]; application rate 80 g/ha): 100%; Matricaria inodora (efficacy in %) [25]: 80%; Digitaria sanguinalis (efficacy in %) ([23]; application rate 5 g/ha): 100%

SMILES | Zea mays (efficacy in %) [14] [%] | Triticum aestivum (efficacy in %) [15] [%] | Oryza sativa (efficacy in %) [16] [%] | Triticum aestivum (efficacy in %) [17] [%] | Amaranthus retroflexus (efficacy in %) [1] [%] | Lolium rigidum (efficacy in %) [2] [%] | Matricaria inodora (efficacy in %) [3] [%] | Avena fatua (efficacy in %) [4] [%] | Setaria viridis (efficacy in %) [5] [%] | Pharbitis purpurea (efficacy in %) ([6]; application rate 20 g/ha) [%] | Veronica persica (efficacy in %) [9] [%] | Viola tricolor (efficacy in %) [10] [%] | Polygonum convolvulus (efficacy in %) [11] [%] | Abutilon theophrasti (efficacy in %) [12] [%] | Digitaria sanguinalis (efficacy in %) [13] [%] | Amaranthus retroflexus (efficacy in %) [18] [%] | Pharbitis purpurea (efficacy in %) [19] [%] | Echinochloa crus-galli (efficacy in %) [20] [%] | Veronica persica (efficacy in %) [21] [%] | Abutilon theophrasti (efficacy in %) [22] [%] | also measured
Cn1c(C(F)(F)F)cc(=O)n(-c2cc(Oc3cccnc3OCC(=O)OCCOC(F)(F)F)c(Cl)cc2F)c1=O [I.15-41] |  |  | 20 | 20 | 100 | 100 | 100 | 90 | 100 | 100 | 100 | 100 | 100 | 100 | 100 | 100 | 100 | 100 | 100 | 100 | Echinochloa crus-galli (efficacy in %) ([7]; application rate 80 g/ha): 100%; Alopecurus myosuroides (efficacy in %) ([8]; application rate 80 g/ha): 100%; Glycine max (efficacy in %) [24]: 20%; Digitaria sanguinalis (efficacy in %) ([23]; application rate 5 g/ha): 100%
